The values that follow come from patent publication US10835840B2, “Methods for in situ separation of mixtures” (INTERNATIONAL SCIENTIFIC PTY LTD, priority 2015, dated 2020).

Several values for one entry are separate records, joined by “and”; a condition that tells them apart may be missing. Identical values can stand only once.

The conditions of data set [1]: in vivo. On the procedure:
The subject's volar forearm or upper arm was delineated into two 3×3 cm square regions which were designated […]. […] After an absorption period of 30 minutes, the excess mixture was removed from each region by washing with water. The region was then tape stripped using the adapted procedure of Lademann et al (The tape stripping procedure—evaluation of some critical parameters. European Journal of Pharmaceutics and Biopharmaceutics 72 (2009) 317-323).

Data set [2] is described as follows: Tape stripping after applying niacinamide gel mixture with or without weak magnetic field (ETP008), mass spectrometry. The class given is in vivo. Further details: unit not given here. An excerpt: ETP008—a linear array of displaced dipolar magnetic elements comprising strontium oxides dispersed in a PVC film base. The displaced dipolar magnetic elements were created in parallel with a pole flux of 450 Gauss. Each element or pole was 2.7 mm wide, creating a pair of displaced dipolar magnetic elements of pitch of 1.5 pairs per centimetre. Inter-pair flux gradient was 900 Gauss or 1350 Gauss per centimetre.
An aliquot of the niacinamide mixture was applied to both regions without rubbing. A magnetic film (ETP008) was placed in close proximity (approximately 0.5 mm) above the Active region for 5 minutes.
The Tape strip samples were then analysed for niacinamide using a validated mass spectrometry method.

[3] abbreviates: Active, Total (6-10) tape strips.
The mark [4] stands for this setting: Passive, Total (6-10) tape strips.

Regarding Vitamin E, the “Penetration of Vitamin E into the skin, in words” value in data set [1] is “much greater penetration”.

For `NC(=O)c1cccnc1` [Niacinamide], the “Niacinamide penetration, Average” value is given as 2.907 in data set [2] (Active (weak magnetic field, ETP008), Tape Strip 1); 2.036 in data set [2] (Active, Tape Strip 2); 1.12 in data set [2] (Active, Tape Strip 3); 0.8796 in data set [2] (Active, Tape Strip 4); 0.8556 in data set [2] (Active, Tape Strip 5); 0.7575 in data set [2] (Active, Tape Strip 6). Moreover, the “Niacinamide penetration, Average” value in data set [2] (Active, Tape Strip 7) is recorded as 0.6674; in data set [2] (Active, Tape Strip 8) it was 0.5672; in data set [2] (Active, Tape Strip 9), 0.4439; in data set [2] (Active, Tape Strip 10) it was 0.3798; in data set [2] (setting [3]), 2.816; in data set [2] (Passive (no weak magnetic field), Tape Strip 1), 2.428. Moreover, the “Niacinamide penetration, Average” value was 1.353 in data set [2] (Passive, Tape Strip 2); 1.193 in data set [2] (Passive, Tape Strip 3); 0.9603 in data set [2] (Passive, Tape Strip 4); 0.8282 in data set [2] (Passive, Tape Strip 5); 0.6176 in data set [2] (Passive, Tape Strip 6); 0.6112 in data set [2] (Passive, Tape Strip 7). Also, the “Niacinamide penetration, Average” value in data set [2] (Passive, Tape Strip 8) turned out to be 0.4614; in data set [2] (Passive, Tape Strip 9) it was 0.3664; in data set [2] (Passive, Tape Strip 10), 0.3966; in data set [2] (setting [4]), 2.453. Besides, the “Niacinamide penetration, individual columns 1-6” value in data set [2] (Active (weak magnetic field, ETP008, 5 minutes), Tape Strip 1, gel mixture, 30 minutes absorption) was 4.463 and 1.099 and 1.021 and 3.47 and 2.739 and 4.647; in data set [2] (Active, Tape Strip 2), 1.782 and 0.5649 and 1.07 and 1.211 and 2.226 and 5.364; in data set [2] (Active, Tape Strip 3) it was 1.137 and 0.5147 and 1.116 and 1.035 and 1.694 and 1.226; in data set [2] (Active, Tape Strip 4) it was 0.9888 and 0.7087 and 1.098 and 0.8548 and 0.8425 and 0.7848; in data set [2] (Active, Tape Strip 5) it was 0.9146 and 0.7814 and 0.7495 and 0.8808 and 1.167 and 0.6402; in data set [2] (Active, Tape Strip 6), 0.895 and 0.8145 and 0.5287 and 0.8757 and 0.7531 and 0.6777. The “Niacinamide penetration, individual columns 1-6” value in data set [2] (Active, Tape Strip 7) was 0.6261 and 0.5502 and 0.4859 and 0.6321 and 0.6608 and 1.049; in data set [2] (Active, Tape Strip 8), 0.4149 and 0.7107 and 0.4741 and 0.5541 and 0.5753 and 0.6739; in data set [2] (Active, Tape Strip 9), 0.4666 and 0.5396 and 0.4059 and 0.4627 and 0.4898 and 0.2985; in data set [2] (Active, Tape Strip 10) it was 0.4229 and 0.3982 and 0.3809 and 0.2336 and 0.5187 and 0.3243; in data set [2] (setting [3]), 2.826 and 3.013 and 2.276 and 2.758 and 2.998 and 3.024; in data set [2] (Passive (no weak magnetic field), Tape Strip 1, gel mixture, 30 minutes absorption), 4.785 and 1.997 and 0.8068 and 3.16 and 2.0563 and 1.761. Moreover, the “Niacinamide penetration, individual columns 1-6” value is 1.077 and 0.9778 and 1.464 and 0.9842 and 1.846 and 1.768 in data set [2] (Passive, Tape Strip 2); 0.6071 and 0.8166 and 1.131 and 1.06 and 1.456 and 2.085 in data set [2] (Passive, Tape Strip 3); 0.4947 and 1.297 and 0.8954 and 0.5456 and 0.8406 and 1.689 in data set [2] (Passive, Tape Strip 4); 0.5925 and 0.8516 and 0.935 and 0.6655 and 0.6213 and 1.303 in data set [2] (Passive, Tape Strip 5); 0.5736 and 0.5759 and 0.7258 and 0.5432 and 0.6385 and 0.6487 in data set [2] (Passive, Tape Strip 6); 0.5936 and 0.4867 and 0.5056 and 0.622 and 0.5467 and 0.9127 in data set [2] (Passive, Tape Strip 7). In addition, the “Niacinamide penetration, individual columns 1-6” value in data set [2] (Passive, Tape Strip 8) is 0.5657 and 0.4006 and 0.4313 and 0.3634 and 0.4878 and 0.5195; in data set [2] (Passive, Tape Strip 9), 0.3146 and 0.4048 and 0.4168 and 0.4248 and 0.2422 and 0.3954; in data set [2] (Passive, Tape Strip 10), 0.3563 and 0.5215 and 0.2107 and 0.4442 and 0.3186 and 0.5283; in data set [2] (setting [4]), 2.404 and 2.39 and 2.29 and 2.398 and 2.234 and 3.005.
